Tested on: Influenza-Viren
Test: Own studies: prophylaxis and therapy of virus infection in mice infected with influenza viruses
Assay type: in vivo, Mäuse
Details: per se, without admixed vaccine
Source text: Aus der Französischen Patentanmeldung Nr. 74 22 909 mit der Publikationsnummer 2 292 486 sind Huramylpeptide vom Typ der Verbindung N-Acetyl-muramyl-L-alanyl-D-isoglutamin ("MDP") bekannt. Diese Verbindungen sind als immunologische Adjuvanzien beschrieben, d.h. sie können in Mischung mit Impfstoffen dazu benützt werden, den Impferfolg zu verbessern. Eigene Untersuchungen, z.B. bei mit Influenza-Viren infizierten Mäusen, haben ergeben, dass N-Acetyl-muramyl-L-alanyl-D-isoglutamin per se, d.h. ohne Beimengung von Impfstoffen, bei der Prophylaxe und Therapie von Virusinfektionen unwirksam ist. Auch ist die Verwendbarkeit strukturell einfacher Muramylpeptide und ihrer Analogen gegen Virusinfektionen bisher nicht beschrieben.

CC(=O)N[C@H]1C(O)O[C@H](CO)[C@@H](O)[C@@H]1O[C@H](C)C(=O)N[C@@H](C)C(=O)N[C@H](CCC(=O)O)C(N)=O (stereo partly drawn) [N-Acetyl-muramyl-L-alanyl-D-isoglutamin]
Wirksamkeit bei der Prophylaxe und Therapie von Virusinfektionen: unwirksam

— patent publication EP0192611A2, “Acylated hexose derivatives and method for their preparation” (CIBA-GEIGY AG, priority 1985, dated 1986)
